Reference: patent publication US20040176294A1, “Use of thyroid-stimulating hormone to induce lipolysis” (priority 2003, published 2004)

What was measured:
male ob/ob mice [1] = assay: Acute stimulation of lipolysis in vivo (serum glycerol and FFA); conditions: CL 1 mg/kg IP
Method: TSH, the β3-adrenoreceptor agonist CL 316,243 (CL), and saline vehicle were examined for stimulation of lipolysis in mice following an overnight fast. […] Lipolysis was assessed as the change in serum glycerol or FFA compared to baseline.
C57BL/6 male ob/ob mice, age 10 weeks, were grouped to normalize weight (n=7-8 for each treatment; average group weight=37.8 g+/−0.4 g). Mice were housed individually for 18 hours prior to treatment, at which time food was withdrawn, with free access to water given. At approximately 8 a.m., the subjects were anesthetized with halothane and blood samples taken by retro-orbital eye bleeds. The blood was allowed to clot, and the serum was separated by centrifugation and frozen for later analysis. Test substances were administered by IP injection in a volume of 0.1 ml, and the animals replaced in their cages for 2 hours with free access to water. At 2 hours, the mice were sacrificed and blood drawn by cardiac puncture.
For measuring free fatty acids in serum, the method previously described for measuring free fatty acids in conditioned medium was followed, with the following modifications. […] The absorbance at 530 nm was measured on the Wallac Victor2 Multilabel counter. […]
Sigma reagent A was reconstituted to 0.5× the recommended concentration. […] The absorbance at 530 nm was measured on the Wallac Victor2 Multilabel counter.

male ob/ob mice [2] = assay: Chronic treatment of ob/ob mice: liver steatosis histology score; type: in vivo; conditions: H&E sections, n=4, vehicle score 4
Method: (§1) 11-week old male ob/ob mice were individually caged and given a standard lab chow (4% fat) with free access to food and water. Animals were assigned to a treatment group (n=7-8, average weight 54.3+/−0.3 g per group), kept on a 12 hour dark cycle (6 PM to 6 AM), and injected each day between 7 and 9 AM. Chow consumed by each animal was weighed twice weekly. All animals received treatments IP with an injection volume of 0.1 ml. […] Thyroid hormone (T4) was administered at 1.5 μg/mouse for 4 days, reduced to 1 [μg/mouse for 10 days, and returned to 1.5 μg/mouse for the next 14 days. The vehicle controls received sterile saline.
Liver sections were dissected from all treatment groups described above and mounted in paraffin following fixation with NBS-formalin. Sections were mounted and stained with hematotoxylin and eosin (H&E) for visualization of hepatic structural changes. The extent of liver steatosis was evaluated on a four-point scale, […], with zero displaying no signs of liver steatotosis, and 4, representing pronounced macrovesicular and microvesicular steatosis.

male ob/ob mice [3] = assay: Chronic treatment of ob/ob mice: adipose tissue depot mass; type: in vivo; conditions: after 4 weeks of treatment, n=4
Method: as §1
Four animals from each group were analyzed for evaluation of changes in adipose tissue depot mass after 4 weeks of treatment. Following sacrifice, brown scapular fat (IBAT) and intra-abdominal fat were dissected and the tissues weighed. […] Elevated thyroid hormone levels are known to act to stimulate]BAT. […] The mesangial fat depot was dissected and removed from the colon for weight determination. Mesangial fat is white adipose tissue and is only readily visualized and dissected in obese mice. Mesangial white fat was removed by carefully stripping the fat, associated matrix and vascular supporting bed from the length of the colon.

male ob/ob mice [4] = assay: in vivo; conditions: mouse
Method: as §1
(§2) After 25 days of treatment as described above, blood was sampled from all treated animals (n=7-8/group), serum separated, and analyzed for total T4 by a commercially available kit (Biocheck, Burlingame, Calif.).

male ob/ob mice [5] = assay: Chronic treatment of ob/ob mice: intraperitoneal glucose tolerance test (IPGTT); type: in vivo; conditions: 4 weeks of treatment; for baseline blood glucose: fasted four hours, n=4; for insulin sensitivity and glucose clearance versus vehicle: IPGTT glucose […]
Method: as §1
Following 4 weeks of daily treatment as described above, mice (n=4/group) were fasted for four hours immediately following the beginning of the light cycle, and a blood sample obtained before IP injection of a glucose solution (1.5 g/kg body weight). Blood samples were obtained at 20, 40, and 120 minutes following injection to evaluate changes in serum glucose and insulin. Glucose concentrations were determined with a Freestyle blood glucose monitor (Therasense Corp.), and insulin concentrations were determined with a commercial ELISA kit (Alpco Diagnostics, Windham N. H.).

male ob/ob mice [6] = assay: Chronic treatment of ob/ob mice: serum lipid analysis; type: in vivo; conditions: 5 weeks of treatment, fasted 4 hours
Method: as §1
The study set used for the IPGTT was treated an additional 7 days before sacrifice (total treatment time of 5 weeks). Subject animals were fasted for 4 hours at the beginning of the light cycle, and serum was obtained at sacrifice under isoflurane anesthesia. Triglyceride and total cholesterol levels were determined with the Cholestech LDX blood analyzer (Cholestech Corporation, Hayward Calif.).

[7] = tested on: differentiated 3T3 L1 adipocytes; assay: CRE-luciferase reporter (cAMP) assay in differentiated 3T3 L1 adipocytes; type: cell-based, murine; conditions: differentiated 3T3 L1 cells, 4 hours
Source text: (§3) 3T3 L1 fibroblasts were differentiated into adipocytes and the cells were transduced with recombinant adenovirus containing a reporter construct, a firefly luciferase gene under the control of cAMP response element (CRE) enhancer sequences. This assay system detects cAMP-mediated gene induction downstream of activation of Gs-coupled G-protein coupled receptors (GPCR's). […] In a separate experiment, undifferentiated 3T3 L1 fibroblasts were transduced with the recombinant adenovirus. […] In another experiment, human primary adipocytes were also transduced with the recombinant adenovirus containing a reporter construct.
(§4) Cells were cultured at 37° C. in an 8% CO2 humidified incubator. Cells were seeded in collagen-coated 96-well plates (Becton Dickinson, cat. # 356407) at a density of 5,000 cells per well. Two days later, differentiation medium was added as follows: DMEM high glucose containing 10% fetal bovine serum (Hyclone, cat. # SH30071), 1 μg/ml insulin, 1 μM dexamethasone, and 0.5 mM 3-isobutyl-methyl xanthine (ICN, cat. #195262). The cells were incubated at 37° C. in 8% CO2 for 4 days and the medium replaced with DMEM high glucose containing 10% fetal bovine serum and 1 μg/ml insulin. The cells were incubated at 37° C. in 8% CO2 for 3 days, then the medium was replaced with DMEM high glucose containing 10% fetal bovine serum.

human primary adipocytes = assay: CRE-luciferase reporter (cAMP) assay in primary human adipocytes; type: cell-based; conditions: 4 hours
Source text: as §3, §4

male ob/ob mice [8] = assay: Chronic treatment of ob/ob mice: body weight and food intake; type: in vivo; conditions: daily IP treatment, 28 days
Method: as §1
Body weight changes were assessed as the percentage increase in body weight from the beginning of the study.

in vivo = assay: in vivo; set-up: species or system mice; conditions: male, ob/ob, mouse
Method: as §1, §2

## C[C@H](Cc1ccc2c(c1)OC(C(=O)[O-])(C(=O)[O-])O2)NC[C@H](O)c1cccc(Cl)c1.[Na+].[Na+] [CL 316,243]
Male ob/ob mice [1]
  serum glycerol and FFA levels: significantly elevated serum glycerol and FFA levels
Male ob/ob mice [2]
  average liver steatosis score: 1
Male ob/ob mice [3]
  brown scapular fat (IBAT) mass: 0.87 ± 0.03 g
  mesangial white fat depot weight: 1.53 ± 0.10 g
Male ob/ob mice [4]
  total T4 in serum: 5.14 ± 0.19 µg/dL
Male ob/ob mice [5]
  baseline blood glucose: 139 ± 9 mg/dL
  insulin sensitivity and glucose clearance versus vehicle: exhibited increased insulin sensitivity and increased clearance of the glucose load
Male ob/ob mice [6]
  serum triglyceride: 191 ± 9 mg/dL
  total cholesterol: 198 ± 7 mg/dL

## CC(C)NCC(O)c1ccc(O)c(O)c1 (centres unmarked) [isoproterenol]
[7]
  induction of luciferase expression: 50 fold
Human primary adipocytes
  induction of luciferase expression / reporter gene: 22 fold

## N[C@@H](Cc1cc(I)c(Oc2cc(I)c(O)c(I)c2)c(I)c1)C(=O)O [thyroxine]
Male ob/ob mice [2]
  average liver steatosis score: 3
Male ob/ob mice [3]
  brown scapular fat (IBAT) mass: 1.26 ± 0.03 g
  mesangial white fat depot weight: 1.18 ± 0.11 g
Male ob/ob mice [8]
  percentage increase in body weight from the beginning of the study: 9.4+/−0.5%
In vivo
  concentration at 25 days: 90.4 ng/mL
Male ob/ob mice [5]
  baseline blood glucose: 252 ± 34 mg/dL
  insulin sensitivity and glucose clearance versus vehicle: did not exhibit increased glucose clearance
Male ob/ob mice [6]
  serum triglyceride: 297 ± 30 mg/dL
  total cholesterol: 231 ± 11 mg/dL
